Test results: patent publication US12486239B2, “Benzotriazole compound, light absorber, and resin composition” (MITSUI CHEMICALS, INC., priority 2019, dated 2025)

How the values were obtained:
Type in all cases: physicochemical
[1] = Maximum absorption wavelength and gram absorption coefficient, toluene solution 0.002 g/L (second embodiment); settings: optical path length 10 mm
Protocol: The maximum absorption wavelength of the benzotriazole compound of the second embodiment is measured using a spectrophotometer (for example, Shimadzu Spectrophotometer UV-1600 manufactured by Shimadzu Corporation) at optical path length of 10 mm using a toluene solution having a concentration of 0.002 g/L.
In Examples according to the second embodiment, the maximum absorption wavelength and the gram absorption coefficient of the benzotriazole compound were measured using a Shimadzu Spectrophotometer UV-1600 manufactured by Shimadzu Corporation at an optical path length of 10 mm using a toluene solution having a concentration of 0.002 g/L.

[2] = Solubility to various organic solvents; settings: Table 6, room temperature; for Solubility: EA: ethyl acetate; for Solubility: MEK: methyl ethyl ketone; for Solubility: MMA: methyl methacrylate
Protocol: As Comparative Example 1, the solubility of TINUVIN326 (manufactured by BASF Japan Ltd.) represented by the following Formula (TI) was measured by the following method.
(§1) To 0.5 g of the benzotriazole compound, the various organic solvents shown in Table 1 were added such that the total mass was about 10 g, the mixture was irradiated with ultrasonic waves for about 30 minutes, and thereafter stirred at room temperature for 2 hours to prepare a dispersion of about 10% by mass.
The dispersion was filtered through a membrane filter (0.2 μm), and the obtained residue was dried in a dryer at 60° C. for 1 hour, and then the mass of the residue was measured.
The solubility of the benzotriazole compound to the solvent was expressed by the following formula. Solubility (% by mass)=(W0−W1)/W0
W0 is the mass of the benzotriazole compound before the treatment, and W1 is the mass of the residue after drying (that is, the dissolution residue of the benzotriazole compound). In a case in which no residue remained on the filter, the solubility was determined as 5% by mass or more.
The solubility of the benzotriazole compound obtained in each Example and Comparative Example was measured by the following method.
as §1, with “Table 6” for “Table 1”

[3] = Heat resistance: TG5% decomposition temperature; settings: Table 6; nitrogen atmosphere, heating rate 10° C./min
Protocol: In each Example and Comparative Example, the decomposition temperature was measured by the following method.
Using a thermal analyzer Rigaku ThermoPlus Evo TG8120, the TG5% decomposition temperature (T-5% by mass) was measured under a nitrogen atmosphere at a heating rate of 10° C./min and a temperature range of from room temperature to 500° C.
The higher the T-5% by mass, the higher the heat resistance.
The decomposition temperature of the benzotriazole compound obtained in each Example and Comparative Example was measured by the following method.

| Structure (SMILES) | gram absorption coefficient [1] | maximum absorption [1] | Solubility: PGMEA [2] | Solubility: EA [2] | Solubility: MEK [2] | Solubility: MMA [2] | Solubility: Toluene [2] | Decomposition temperature (Tg-5% by mass) [3] |
| --- | --- | --- | --- | --- | --- | --- | --- | --- |
| Cc1cc(-n2nc3ccc(SCCOCCOCCSc4ccc5nn(-c6cc(C)cc(C(C)(C)C)c6O)nc5c4)cc3n2)c(O)c(C(C)(C)C)c1 [Compound D1] | 59200 mL/g/cm | 368.5 nm | ≤1 % by mass | ≤1 % by mass | ≤1 % by mass | ≤2 % by mass | 3≤ % by mass | 331.7 °C |
| Cc1cc(-n2nc3ccc(SCCOCCSc4ccc5nn(-c6cc(C)cc(C(C)(C)C)c6O)nc5c4)cc3n2)c(O)c(C(C)(C)C)c1 [Compound D2] | 63500 mL/g/cm | 368.0 nm |  |  | 3≤ % by mass | 3≤ % by mass | 3≤ % by mass | 322.2 °C |
| Cc1cc(-n2nc3ccc(SCCOC(=O)c4cc(C(=O)OCCSc5ccc6nn(-c7cc(C)cc(C(C)(C)C)c7O)nc6c5)cc(C(=O)OCCSc5ccc6nn(-c7cc(C)cc(C(C)(C)C)c7O)nc6c5)c4)cc3n2)c(O)c(C(C)(C)C)c1 [Compound D3] | 62000 mL/g/cm | 364.5 nm | ≤1 % by mass | ≤1 % by mass | ≤0.5 % by mass | ≤0.5 % by mass | 1.5≤ % by mass | 335.1 °C |
